# Laboratory results: paper PMC10382584, “Macrocyclization of linear molecules by deep learning to facilitate macrocyclic drug candidates discovery” (Nature Communications, 2023)
# Several values for one entry are separate records, joined by “and”; a condition that tells them apart may be missing. Equal entries are not always repeated. Where two headings read alike, the source gives them in different places.
# Assays:
# [1] = target: T1, JAK2 (Homo sapiens, UniProt O60674); experiment: JAK2 enzyme assay (Z'-LYTE kinase assay kit); assay type: biochemical
# T1 construct: 0.05–0.42 ng JAK2, 2 μM peptide substrate (Tyr06)
# T1 sequence (O60674 whole entry): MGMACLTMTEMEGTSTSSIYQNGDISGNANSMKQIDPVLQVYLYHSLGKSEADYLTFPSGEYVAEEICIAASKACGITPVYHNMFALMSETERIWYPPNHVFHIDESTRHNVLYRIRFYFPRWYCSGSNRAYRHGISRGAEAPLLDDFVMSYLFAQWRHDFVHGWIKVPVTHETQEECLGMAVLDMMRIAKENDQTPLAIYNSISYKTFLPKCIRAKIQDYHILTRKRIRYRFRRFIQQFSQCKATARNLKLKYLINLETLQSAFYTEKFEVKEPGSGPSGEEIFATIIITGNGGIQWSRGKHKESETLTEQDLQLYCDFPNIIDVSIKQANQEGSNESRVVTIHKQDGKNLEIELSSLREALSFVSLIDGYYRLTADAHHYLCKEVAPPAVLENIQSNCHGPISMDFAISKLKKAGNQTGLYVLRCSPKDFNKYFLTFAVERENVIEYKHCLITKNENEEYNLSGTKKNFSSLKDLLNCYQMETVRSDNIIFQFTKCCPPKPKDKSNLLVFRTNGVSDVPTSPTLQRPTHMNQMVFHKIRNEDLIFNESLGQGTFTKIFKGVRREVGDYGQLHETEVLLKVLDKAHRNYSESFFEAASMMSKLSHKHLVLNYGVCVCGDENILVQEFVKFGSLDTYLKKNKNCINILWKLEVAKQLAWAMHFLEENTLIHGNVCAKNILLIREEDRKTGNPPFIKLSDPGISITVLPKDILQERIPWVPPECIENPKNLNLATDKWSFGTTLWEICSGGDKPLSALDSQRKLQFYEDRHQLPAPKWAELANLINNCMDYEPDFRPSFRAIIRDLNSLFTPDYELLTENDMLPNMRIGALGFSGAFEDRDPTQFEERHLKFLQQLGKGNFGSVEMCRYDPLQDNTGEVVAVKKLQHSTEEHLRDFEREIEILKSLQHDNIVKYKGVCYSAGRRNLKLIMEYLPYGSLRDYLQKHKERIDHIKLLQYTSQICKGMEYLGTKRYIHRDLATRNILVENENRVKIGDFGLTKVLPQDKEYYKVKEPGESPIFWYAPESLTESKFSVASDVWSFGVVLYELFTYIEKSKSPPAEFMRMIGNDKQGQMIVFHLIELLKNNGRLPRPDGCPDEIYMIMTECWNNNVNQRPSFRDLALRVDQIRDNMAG
# Method: JAK kinase activity assays were performed using Z’-LYTETM kinase assay kit (Life Technologies, pv4122). […] The mixture was added into the 384-well microplate, shaken gently, and then incubated at room temperature for 1 h. Subsequently, 5 μL development solution was added to the well for incubating another 1 h. Finally, 5 μL stop reagent was added to stop the reaction. […] IC50 values were calculated using GraphPad Prism v8.0.3, and three parallel experiments were performed.
# [2] = test system: HEL cells; experiment: Cell proliferation assay (CCK-8), HEL cells; assay type: cell-based, human; settings: for Inhibition (%): single wells, replicates 1 and 2
# Method: (§1) The human erythroid leukemia (HEL 92.1.7) cells were purchased from the American Type Culture Collection (ATCC, TIB-180), and the human megakaryoblastic (SET2) cells were obtained from German Collection of Microorganisms and Cell Cultures (DSMZ, ACC 608). The anti-proliferative activities of compounds were evaluated using WST-8 cell counting kit-8 (Elabscience). HEL and SET-2 cells were seeded at 5000 cells/well in 70 μL RPMI-1640 medium (Hyclon) with 10% FBS (Gibco) to the 96-well plate and incubated overnight at 37 °C with 5% CO2. The compounds were serially diluted in RPMI-1640 medium, and cells were treated separately with 30 μL various concentrations of compounds for 72 h. The final DMSO concentration in the culture wells was 0.1%, which had no effect on the cell viability. Finally, 10 μL of CCK-8 solution was added into the wells. 4 h later, the absorbance values at 450 nm were recorded. IC50 values were determined using GraphPad Prism v8.3.0, and three parallel experiments were performed.
# [3] = test system: SET-2 cells; experiment: Cell proliferation assay (CCK-8), SET-2 cells; assay type: cell-based, human; settings: for Inhibition (%): single wells, replicates 1 and 2
# Method: as §1
# [4] = Chemical stability in DMSO stock solution (HPLC purity); assay type: physicochemical; settings: mean±SD
# Text: compounds were formulated in the solubilizing vehicle (5% DMSO/30% PEG400/65% […]
# safety to the mice in the test.
# 6. What was the sample dissolved in for the in vitro and in vivo experiments? Response: The solvent information for the in vitro and in vivo experiments has been added in the revised manuscript. […]
# 7. Was the stability of the different compounds assessed and compared to Fedratinib? This is generally a critical point in macrocyclic studies. […]
# in DMSO stock solution. Test compounds were incubated at room temperature and 60 ℃, respectively, for 72 h, and their purities (%) were determined using HPLC equipped with a CORTECS C18 column (4.6*50 mm, 2.7 μm particle size) and a UV/VIS detector setting of λ=210 nm. All co mpounds were eluted with the two solvent systems ([…] as organic phase in Method I and CH3OH as organic phase in Method II) at a flow rate of 0.3 ml/min. Each experiment repeated for three times and the results are represented as mean±SD.
# Ta b e l R 1 . Comparison of chemical stability of different compounds at room temperature and 60 ℃, respectively.
# [5] = test system: DSS-induced colitis mice; experiment: In vivo efficacy study, DSS-induced colitis model; parameters: species or system male BALB/c mice; settings: SASP 500 mg/kg; for Body weight (Fig. 6a) / DAI score (Fig. 6b): individual mice
# Method: Model mice were divided into four groups and eight mice were included in each group on day 8. […] Meanwhile, solvent was given intragastrically to the control group and model group. On day 15, the mice were sacrificed, and the length and weight of each colon were measured.
# Body weight, the stool consistency, and the presence of blood in feces were recorded daily in the morning. […] The maximum score was 9, which was the sum of the scores. About 1-cm colon tissue, which is 0.5 cm away from the anal margin, was collected, and the ileocecal area was used for histopathological examination. After H&E staining, the tissues were scored under single-blind conditions to evaluate the levels of inflammation and tissue damage in the colons following the criteria proposed by ref. [62]. Statistical analyses were performed using SPSS v24.0.
smiles,measurement,setting,value
Cc1cnc2nc1Nc1cccc(c1)C(=O)N(C)Cc1cc(ccc1OCCN1CCCC1)N2 [Compound 2],IC50,"[1]; JAK2, 25 μM ATP, mean ± SD, n = 3, read-out: Enzyme Inhibitory Activity (IC50)",0.364 µM
same,IC50,"[1]; JAK2 enzyme, mean of 3 replicates, read-out: IC50/μM mean, enzyme inhibitory activity",0.364 µM
same,IC50,"[1]; JAK2 enzyme, mean ± SD of 3 replicates, read-out: IC50/μM mean ± SD, enzyme inhibitory activity",0.364 ± 0.007 µM
same,IC50,"[1]; JAK2 enzyme, single-replicate fits (replicates 1-3), read-out: IC50/μM (individual replicates), enzyme inhibitory activity",0.366 µM and 0.356 µM and 0.37 µM
same,Inhibition (%),"[2]; HEL cell lines, 0.0977 μM",2.051% and -1.891% and 1.838% and 11.186% and -5.882% and -1.006%
same,Inhibition (%),"[2]; HEL cell lines, 0.1953 μM",0.772% and 1.838% and 2.477% and 15.575% and -7.833% and -8.321%
same,Inhibition (%),"[2]; HEL cell lines, 0.3906 μM",2.264% and 1.518% and 1.625% and 18.866% and -1.250% and -7.345%
same,Inhibition (%),"[2]; HEL cell lines, 0.7813 μM",10.786% and 8.762% and 8.549% and 18.744% and 6.553% and -6.614%
same,Inhibition (%),"[2]; HEL cell lines, 1.5625 μM",18.882% and 12.064% and 2.264% and 20.207% and 10.332% and -0.152%
same,Inhibition (%),"[2]; HEL cell lines, 3.1250 μM, 3.125 µM",25.273% and 19.521% and 12.916% and 41.664% and 20.207% and 14.721%
same,Inhibition (%),"[2]; HEL cell lines, 6.2500 μM, 6.25 µM",42.104% and 34.754% and 32.197% and 45.931% and 34.837% and 31.058%
same,Inhibition (%),"[2]; HEL cell lines, 12.5000 μM, 12.5 µM",71.398% and 70.120% and 69.694% and 81.042% and 74.825% and 72.874%
same,IC50,"[2]; HEL cell lines, mean of 2 replicates, read-out: IC50/μM mean, cellular antiproliferative activity",7.34 µM
same,IC50,"[2]; HEL cell lines, mean ± sd of 2 replicates, read-out: IC50/μM mean ± sd, cellular antiproliferative activity",7.34 ± 0.44 µM
same,IC50,"[2]; HEL cell lines, single-replicate fits, read-out: IC50/μM (individual replicates), cellular antiproliferative activity",7.03 µM and 7.65 µM
same,IC50,"[2]; HEL cells, 72 h, mean ± SD, read-out: Cellular Antiproliferative Activity (IC50) HEL",7.34 ± 0.44 µM
same,Inhibition (%),"[3]; SET-2 cell lines, 0.0977 μM",7.592% and 1.623% and 1.518% and -0.378% and 0.918% and 6.534%
same,Inhibition (%),"[3]; SET-2 cell lines, 0.1953 μM",8.325% and -1.100% and -4.241% and -2.322% and 3.294% and 8.909%
same,Inhibition (%),"[3]; SET-2 cell lines, 0.3906 μM",0.681% and -1.309% and -10.209% and -2.322% and 6.965% and 5.562%
same,Inhibition (%),"[3]; SET-2 cell lines, 0.7813 μM",-8.429% and 1.100% and -6.440% and -0.270% and 5.886% and 6.102%
same,Inhibition (%),"[3]; SET-2 cell lines, 1.5625 μM",-4.869% and -5.916% and -2.880% and 1.998% and 4.914% and -0.162%
same,Inhibition (%),"[3]; SET-2 cell lines, 3.1250 μM, 3.125 µM",4.031% and -0.576% and -2.984% and 1.674% and 9.233% and -1.350%
same,Inhibition (%),"[3]; SET-2 cell lines, 6.2500 μM, 6.25 µM",8.744% and 16.702% and 4.555% and 8.801% and 8.153% and 7.613%
same,Inhibition (%),"[3]; SET-2 cell lines, 12.5000 μM, 12.5 µM",20.471% and 17.330% and 11.885% and 18.953% and 16.793% and 14.741%
same,IC50,"[3]; SET-2 cell lines, single-replicate fits, read-out: IC50/μM (individual replicates), cellular antiproliferative activity",> 25 µM
same,IC50,"[3]; SET-2 cells, 72 h, mean ± SD, read-out: Cellular Antiproliferative Activity (IC50) SET-2",> 25 µM
same,purity after incubation in DMSO stock solution,"[4]; 60 ℃, 0 h",99.59±0.13%
same,purity after incubation in DMSO stock solution,"[4]; 60 ℃, 2 h",99.60±0.06%
same,purity after incubation in DMSO stock solution,"[4]; 60 ℃, 24 h",100.00±0.00%
same,purity after incubation in DMSO stock solution,"[4]; 60 ℃, 48 h",99.61±0.01%
same,purity after incubation in DMSO stock solution,"[4]; 60 ℃, 72 h",99.43±0.09%
same,purity after incubation in DMSO stock solution,"[4]; Room Temperature, 0 h",99.65±0.05%
same,purity after incubation in DMSO stock solution,"[4]; Room Temperature, 2 h",99.65±0.05%
same,purity after incubation in DMSO stock solution,"[4]; Room Temperature, 24 h",100.00±0.00%
same,purity after incubation in DMSO stock solution,"[4]; Room Temperature, 48 h",99.99±0.01%
same,purity after incubation in DMSO stock solution,"[4]; Room Temperature, 72 h",99.50±0.06%
O=C(O)c1cc(/N=N/c2ccc(S(=O)(=O)Nc3ccccn3)cc2)ccc1O [Salicylazosulfapyridine],Body weight (Fig. 6a),[5]; day 0,22.7 and 23.7 and 19.3 and 23.6 and 21.6 and 22.9 and 21.7 (2×)
same,DAI score (Fig. 6b),[5]; day 0,0
same,DAI score (Fig. 6b),[5]; day 1,0 (7×) and 1
same,Body weight (Fig. 6a),"[5]; day 1, in g (unit assumed)",23.2 and 23.6 and 22.1 and 24.5 and 21.4 and 22.4 and 22 and 22.5
same,DAI score (Fig. 6b),[5]; day 2,0 (7×) and 1
same,Body weight (Fig. 6a),"[5]; day 2, in g (unit assumed)",23.3
same,DAI score (Fig. 6b),[5]; day 3,1 (6×) and 0 (2×)
same,DAI score (Fig. 6b),[5]; day 4,4 and 2 and 1 (4×) and 3 and 0
same,Body weight (Fig. 6a),"[5]; day 4, in g (unit assumed)",22.3 and 22.4 and 22.1 and 23.7 and 20.4 and 22.9 and 21.3 and 22.8
same,DAI score (Fig. 6b),[5]; day 5,4 and 2 (4×) and 1 (2×) and 6
same,Body weight (Fig. 6a),"[5]; day 5, in g (unit assumed)",20.8 and 20.9 and 21.8 and 22.6 and 19.7 and 21.4 and 20.2 and 21.2
same,DAI score (Fig. 6b),[5]; day 6,5 (4×) and 7 and 3 and 1 (2×)
same,Body weight (Fig. 6a),"[5]; day 6, in g (unit assumed)",19 and 19.1 and 21.1 and 21.3 and 18.6 and 19.3 and 19.2 and 20.2
same,DAI score (Fig. 6b),[5]; day 7,8 and 6 and 1 and 4 and 5 (2×) and 3 and 2
same,Body weight (Fig. 6a),"[5]; day 7, in g (unit assumed)",16.8 and 17.9 and 20.5 and 20.7 and 18.1 and 17.6 and 17 and 18.6
same,DAI score (Fig. 6b),[5]; day 8,2 (2×) and 5 and 1 (3×) and 0 (2×)
same,Body weight (Fig. 6a),"[5]; day 8, in g (unit assumed)",16.9 and 16.6 and 19.6 and 19.9 and 16.5 and 17.3 and 18.4 and 19.2
same,Body weight (Fig. 6a),[5]; day 9,18 (2×) and 17.2 and 19.6 and 20.6 and 15.7 and 19.4 and 20.8
same,DAI score (Fig. 6b),[5]; day 9,0 (7×) and 1
same,DAI score (Fig. 6b),[5]; day 10,2 (4×) and 1 (2×) and 3 and 0
same,Body weight (Fig. 6a),"[5]; day 10, in g (unit assumed)",17.1 and 16.7 and 19.2 and 21.8 and 17.6 and 20.2 and 22.1
same,DAI score (Fig. 6b),[5]; day 11,0 (5×) and 1 (2×)
same,Body weight (Fig. 6a),"[5]; day 11, in g (unit assumed)",17.6 and 16.3 and 19.7 and 21.9 and 19.1 and 19.8 and 22.6
same,DAI score (Fig. 6b),[5]; day 12,0
same,Body weight (Fig. 6a),"[5]; day 12, in g (unit assumed)",19 and 17.1 and 20.3 and 22.2 and 19.5 and 21.5 and 22.4
same,Body weight (Fig. 6a),"[5]; day 13, in g (unit assumed)",18.8 and 17.7 and 20 and 23.6 and 20.2 and 21.5 and 22.6
same,Body weight (Fig. 6a),"[5]; day 14, in g (unit assumed)",19.5 and 18.6 and 19.8 and 24.4 and 21 and 22.1 and 22.5
same,HE staining score (Fig. 6d),[5]; individual colon tissues (n = 8),3 and 1 and 2
